Patent publication US20220213128A1 (RockGen Therapeutics LLC, priority 2021, published 2022)

Columns and labels:
[1] = Plasma stability assay and LC-MS/MS; stability in solution; assay type: in vitro ADME; conditions: compared with the other designed compounds
Procedure: Having described the compounds generally, including the preferred compound candidates for use in the treatment of PD, the method utilized to test and produce the compounds may now be described. […] The stability of these compounds is determined using a plasma stability assay and LC-MS/MS. The assays are utilized to assess each compound's activity and cellular permeability human dopaminergic neuronal precursor cell lines and Caco-2 cells. […] A in silico analysis may be used to predict bioavailability, BBB penetration, and PK/PD profiles in the peripheral and central nervous system.

[2] = cited from earlier work
[3] = Human Metabolome Database; cited from earlier work

| stability in aqueous solutions and plasma [1] | SMILES | bioavailability ([2]; after peripheral conversion and gut metabolism) [%] | fraction of oral dose that may reach the brain ([2]; certain formulations, at best) | lipophilicity, determined experimental value [3] |
| --- | --- | --- | --- | --- |
| more stable | N[C@@H](Cc1ccc(OC(=O)CCCC[C@@H]2CCSS2)c(O)c1)B(O)O [RG-2] |  |  |  |
| more stable | N[C@@H](Cc1ccc(OC(=O)CCCC[C@@H]2CCSS2)c(O)c1)C(=O)O [RG-1] |  |  |  |
|  | N[C@@H](Cc1ccc(O)c(O)c1)C(=O)O [L-Dopa, L-3,4-dihydroxyphenylalanine] | 1 | 5-10% | −2.39 |

| SMILES | stability in aqueous solutions and plasma [1] | bioavailability ([2]; after peripheral conversion and gut metabolism) [%] | fraction of oral dose that may reach the brain ([2]; certain formulations, at best) | lipophilicity, determined experimental value [3] |
| --- | --- | --- | --- | --- |
| C[Si](C)(C)CCc1ccc(C[C@@H](N)Cc2ccc(OC(=O)CCCC[C@@H]3CCSS3)c(O)c2)cc1 [RG-4] | more stable |  |  |  |
